From PubChem BioAssay (NCI)
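Where inhibition never reached the appropriate level, the endpoint shown equals the highest concentration tested. Otherwise, values were interpolated linearly from a five-concentration, 48-hour dose response in 96-well plates. TGI marks complete inhibition of growth.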

Legend:
Assay in all cases: growth of human tumour cells (NCI), 48 h
[1] = test system: CAKI-1 renal
[2] = test system: COLO 205 colon
[3] = test system: HS 578T breast
[4] = test system: NCI/ADR-RES ovarian
[5] = test system: PC-3 prostate
[6] = test system: SF-268 CNS
[7] = test system: SNB-19 CNS
[8] = test system: SNB-75 CNS
[9] = test system: SW-620 colon
[10] = test system: T-47D breast

SMILES | TGI [1] | TGI [2] | TGI [3] | TGI [4] | TGI [5] | TGI [6] | TGI [7] | TGI [8] | TGI [9] | TGI [10]
O=C(/C=C/c1ccc(OCc2ccccc2)cc1)NCc1ccc(C(=O)NCCc2ccccc2)cc1 | > 100 µM | > 100 µM | > 100 µM | > 100 µM | > 100 µM | > 100 µM | > 100 µM | > 100 µM | > 100 µM | > 100 µM
COC(=O)c1ccccc1C1CN=NC12Cc1ccc(C)cc1C2=O (stereo not given) | > 100 µM | > 100 µM | > 100 µM | > 100 µM | > 100 µM | > 100 µM | > 100 µM | > 100 µM | > 100 µM | > 100 µM
O=c1c(-c2nc3ccccc3c3ccccc3c2=O)nc2ccccc2c2ccccc12 | > 100 µM | > 100 µM | > 100 µM | > 100 µM | 89.6 µM | > 100 µM | > 100 µM | 94.9 µM | > 100 µM | > 100 µM
O/N=C\c1c2c(cc3c1CCC3)CCC2 | > 100 µM | > 100 µM | > 100 µM | > 100 µM | > 100 µM | > 100 µM | > 100 µM | > 100 µM | > 100 µM | > 100 µM
S=c1ncc(-c2cncc(-c3cnc(=S)[nH]c3)n2)c[nH]1 | > 100 µM | > 100 µM | > 100 µM | > 100 µM | > 100 µM | > 100 µM | > 100 µM | > 100 µM | > 100 µM | > 100 µM
Cc1nn2c(=O)c([N+](=O)[O-])c(/C=C/c3ccc(F)cc3)nc2s1 | 27.9 µM | 16.7 µM | 28.6 µM | 25.1 µM | 22 µM | 26.2 µM | 23.2 µM | 31.3 µM | 19.3 µM | 19.3 µM
CC(=O)O[C@H]1[C@@H](N2CCOCC2)C[C@H]2[C@@H]3CC=C4C[C@@H](N5CCCC5)CC[C@]4(C)[C@H]3CC[C@@]21C | > 100 µM | > 100 µM | > 100 µM | > 100 µM | > 100 µM | > 100 µM | > 100 µM | > 100 µM | > 100 µM | > 100 µM
CCCOC(=O)c1cc(O)c(O)c(O)c1 | > 100 µM | > 100 µM | > 100 µM | > 100 µM | > 100 µM | > 100 µM | > 100 µM | > 100 µM | > 100 µM | > 100 µM
CC1(C)N=C(C(N)=O)c2[nH]cnc2N1 | > 100 µM | > 100 µM | > 100 µM | > 100 µM | > 100 µM | > 100 µM | > 100 µM | > 100 µM | > 100 µM | > 100 µM
NC1=Nc2cc(C(F)(F)F)ccc2Sc2nc3ccccc3n21 | > 100 µM | > 100 µM | > 100 µM | > 100 µM | > 100 µM | > 100 µM | > 100 µM | 71.2 µM | > 100 µM | > 100 µM
CC(C)(C)OC(=O)Cn1ncn(NC(=O)Cc2ccccc2)c1=S | > 10 µM | > 10 µM | > 10 µM | > 10 µM | > 10 µM | > 10 µM | > 10 µM | > 10 µM | > 10 µM | > 10 µM
NCCCN(CCCCN(CCCN)CCCc1ccccc1)CCCc1ccccc1 | 4.94 µM | 3.18 µM | 4.66 µM | 43.1 µM | 12.3 µM | 8.32 µM | 6.62 µM | 5.04 µM | 10.6 µM | 23.5 µM
CSc1c(C(C)=O)c(O)n(-c2ccc(C)cc2)c(=O)c1C#N | > 100 µM | > 100 µM | > 100 µM | > 100 µM | > 100 µM | > 100 µM | > 100 µM | > 100 µM | > 100 µM | > 100 µM
CCOC(=O)N1c2ccccc2C(C)=CC(C)C1C (stereo not given) | 74.3 µM | > 100 µM | 82.2 µM | > 100 µM | > 100 µM | > 100 µM | > 100 µM | 69 µM | > 100 µM | > 100 µM
O=C1c2cc3c(cc2NC(c2ccccc2F)C1O)OCO3 (stereo not given) | > 77.8 µM | > 39.8 µM | 48.2 µM | > 64.7 µM | > 100 µM | 68.2 µM | > 56.1 µM | 56.9 µM | > 100 µM | > 100 µM
CN(C)S(=O)(=O)c1ccc2[nH]c(O)c(C3=Nc4ccccc4C3=O)c2c1 | > 100 µM | > 100 µM | 76.9 µM | > 100 µM | 90.4 µM | 38.7 µM | 42.6 µM | 10.3 µM | > 100 µM | > 100 µM
CSc1cc(Cl)c(C)cc1S(=O)(=O)NC(=O)NNc1ccc(C)cc1 | > 100 µM | > 100 µM | > 100 µM | > 100 µM | > 100 µM | > 100 µM | > 100 µM | > 100 µM | > 100 µM | > 100 µM
C[N+]1(C)CCCC(C#N)(c2ccccc2)CC1 (stereo not given) | > 100 µM | > 100 µM | > 100 µM | > 100 µM | > 100 µM | > 100 µM | > 100 µM | > 100 µM | > 100 µM | > 100 µM
CCOC(=O)C(C)c1nc2cc(F)c(F)cc2[nH]c1=O (stereo not given) | > 100 µM | > 100 µM | > 100 µM | > 100 µM | > 100 µM | > 100 µM | > 100 µM | > 100 µM | > 100 µM | > 100 µM
COc1ccc(-c2nc3ccccc3c(=O)[nH]2)cc1 | > 100 µM | > 100 µM | 31.9 µM | > 100 µM | > 100 µM | > 100 µM | > 100 µM | 84.9 µM | > 100 µM | > 100 µM
CC(=O)c1csc2c1C(=O)c1ccccc1C2=O | 18.2 µM | 3.62 µM | 7.11 µM | 16.6 µM | > 100 µM | 12.9 µM | 5.06 µM | 3.11 µM | 5.4 µM | 50.8 µM
COC(=O)[C@@H]1c2c(oc3cc(CO)cc(O)c3c2=O)C=C[C@H]1O | 22.4 µM | 29 µM | 55.8 µM | 47.5 µM | 20.1 µM | 21.7 µM | 33.5 µM | 31.7 µM | 10.4 µM | 9.4 µM
